Assays:
Format in all cases: cell-based
hTRPA1 = target: T1, hTRPA1 (Homo sapiens, UniProt O75762); assay: Live-cell calcium imaging (Fura-2) of TRPA1 activation in TREx 293 cells
T1 construct: expressed in transfected cells; host or cells: TREx 293 cells, pcDNA4/TO vector, doxycycline-induced
Protocol: rTRPV1 or hTRPA1 were stably expressed in TREx 293 cells following the manufacturer's protocol (Invitrogen, MA, USA). Briefly, TREx host cell line (Invitrogen, MA, USA) was transfected with pcDNA4/TO containing the gene of interest using Mirus LT1 transfection reagent (Mirus Bio, WI, USA) with Opti-MEM I Reduced Serum Medium (Invitrogen, MA, USA). Successful recombination and maintenance were confirmed through zeocin (500 μg/ml; Invivogen, Toulouse, France) selection to establish a stably-transfected cell line. Cells were grown in DMEM (Sigma-Aldrich, MO, USA) supplemented with 10% FBS, 1% penicillin-streptomycin, 2 mM L-alanine L-glutamine, and 25 mM HEPES (pH 7.3) supplemented with 5 μg/ml blasticidin at 37° C. and 5% CO2. Cells were passaged twice per week. Three hours before analysis, cells were treated with doxycycline (0.2-1 μg/ml) to induce transgene expression.
Flip-in TREX293T cells were spotted at PDL (0.2 mg/ml)-coated imaging chambers (μ-slide, 8-well; Ibidi, Martinsried, Germany) and incubated for 1.5-2 h in a humidified incubator at 37° C. and 5% CO2. Cells were loaded with 3 μg/ml Fura-2 AM (Thermo Fisher Scientific) dissolved in Ringer solution. The imaging chamber was placed onto the inverted microscope (IX70; Olympus, Tokyo, Japan). Cells were illuminated with a 175W xenon arc lamp, and excitation wavelengths (340/380 nm) were selected by a Lambda DG-4 monochromatic wavelength changer (Sutter Instrument, Novato, CA, USA). Intracellular Ca2+ concentration was measured by digital video microfluorometry illuminated interline CCD camera (Exi Blue; QImaging, Surrey, BC, Canada) using MetaFluor fluorescence ratio imaging software (Molecular Devices). Dual images (340 and 380 nm excitation, 510 nm emission) were collected, and pseudocolor ratio-metric images were monitored every 4 s during the experiment. Data analysis was performed with MetaFluor fluorescence ratio imaging software. Data are presented as a normalized intensity of baseline fluorescence. All experiments were carried out at room temperature.
Data for THC (leftmost column) and for THC with a 1/10 concentration of a terpene are presented. Response amplitudes are normalized to the maximal activation obtained by administration of Allyl Isothiocyanate (AITC). Numbers in parentheses represent p values for the comparison of the TRPA1 activation for THC and for THC plus a 1/10 concentration terpene.

GIRK channel = target: T2, GIRK channel (Homo sapiens, UniProt P48051+P48549); assay: Receptor-independent effect on GIRK current in oocytes expressing the GIRK channel but not the CB1 receptor
T2 construct: expressed in transfected cells; host or cells: Xenopus laevis oocytes injected with cRNA
T2 sequence (P48549 1-501): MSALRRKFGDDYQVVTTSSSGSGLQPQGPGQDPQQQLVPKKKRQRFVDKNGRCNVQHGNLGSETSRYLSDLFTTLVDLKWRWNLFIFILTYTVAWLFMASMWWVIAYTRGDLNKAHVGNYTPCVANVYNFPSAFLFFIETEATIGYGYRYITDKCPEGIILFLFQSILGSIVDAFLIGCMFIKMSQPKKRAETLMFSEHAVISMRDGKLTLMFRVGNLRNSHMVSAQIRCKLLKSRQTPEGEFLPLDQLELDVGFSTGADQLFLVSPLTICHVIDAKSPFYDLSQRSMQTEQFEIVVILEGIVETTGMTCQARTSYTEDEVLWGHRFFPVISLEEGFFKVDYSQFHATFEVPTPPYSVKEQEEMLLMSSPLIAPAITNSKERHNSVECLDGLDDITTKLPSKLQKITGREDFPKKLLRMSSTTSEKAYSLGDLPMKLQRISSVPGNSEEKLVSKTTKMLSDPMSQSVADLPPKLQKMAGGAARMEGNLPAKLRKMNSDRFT
T2 sequence (P48051 1-423): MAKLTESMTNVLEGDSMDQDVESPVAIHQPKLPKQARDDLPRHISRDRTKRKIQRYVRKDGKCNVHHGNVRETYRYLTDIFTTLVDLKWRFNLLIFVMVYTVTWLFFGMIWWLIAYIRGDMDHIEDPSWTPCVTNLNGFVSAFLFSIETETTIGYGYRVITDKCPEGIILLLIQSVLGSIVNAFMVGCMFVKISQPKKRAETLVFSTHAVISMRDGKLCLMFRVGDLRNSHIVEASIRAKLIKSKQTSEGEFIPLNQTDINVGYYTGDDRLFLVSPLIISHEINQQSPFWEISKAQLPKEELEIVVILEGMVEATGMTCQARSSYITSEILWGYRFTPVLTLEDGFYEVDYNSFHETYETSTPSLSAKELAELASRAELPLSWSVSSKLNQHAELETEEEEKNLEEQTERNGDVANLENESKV
Protocol: To do so, the effect of THC and a panel of various terpenes was measured on oocytes expressing the GIRK channel but not the CB1 receptor.

CB1 receptor [1] = target: T3, CB1 receptor (Homo sapiens, UniProt P21554); assay: CB1 receptor activation by THC in combination with terpenes, Xenopus oocyte GIRK current; settings: terpene:THC weight/weight ratio 1:10; ratio of THC concentrations evoking 50% of maximal response with and without terpene
T3 construct: expressed in transfected cells; host or cells: Xenopus laevis oocytes injected with cRNA
Protocol: Xenopus oocytes were used as a functional expression system, as described in Example 1.
Terpenes were administered together with tetrahydrocannabinol (THC) at a terpene to THC weight/weight ratio in the range between 0.05:1 and 1:1.
Augmented activation was given as fold change. Fold change in potency is given as the ratio between the THC concentration required to evoke 50% of the maximal response in the presence of terpene and the THC concentration that evoked the same response in the absence of terpene.

CB1 receptor [2] = target: T3, CB1 receptor; assay: CB1 receptor activation by terpenes, CB1-mediated GIRK currents in Xenopus oocytes (two-electrode voltage clamp); settings: 10 μM terpene alone; response amplitude normalized to response obtained with 10 μM THC; Xenopus oocytes expressing CB1, GIRK1/2, Gαi3
Protocol: To test the possibility that the presence of various terpenes affects the activation of the CB1 receptor, the Inventors used Xenopus oocytes as a functional expression system. To this end, Xenopus oocytes were injected with cRNAs of proteins involved in the pathway leading to activation of K+ currents by CB1 receptor via βγ subunits of the G-proteins: The CB1 receptor, the two subunits of the GIRK channel (GIRK1 and GIRK2), and the Gαi3 subunit.
cDNA plasmids of the two subunits (GIRK1 and GIRK2) of the G protein-coupled inwardly-rectifying potassium (GIRK) receptor, the CB1 receptor, and the α subunit of the G-protein (Gαi3) were linearized with the appropriate restriction enzymes. The linearized plasmids were transcribed in vitro using a standard procedure.
X. laevis oocytes were isolated and incubated in NDE96 solution composed of ND96 (in mM: 96 NaCl, 2 KCl, 1 CaCl2, 1 MgCl2, 5 Hepes, with pH adjusted to 7.5 with NaOH) with the addition of 2.5 mM Na+ pyruvate, 100 units/ml penicillin, and 100 μg/ml streptomycin. A day after their isolation, the oocytes were injected with the relevant cRNAs. cRNAs of CB1 receptor (2 ng) and GIRK1 and GIRK2 (200 pg each) were injected. In addition, cRNA of Gαi3 (1000 pg) was injected to decrease the basal GIRK current (IK) and to improve the relative activation by the agonist (17).
Currents were measured 3-5 days after cRNA injection and were recorded using the standard two-electrode voltage clamp technique (Axoclamp 2B amplifier, Axon Instruments, Foster City, CA). Each oocyte was placed in the recording bath containing ND96 solution and was impaled with two electrodes pulled from 1.5-mm Clark capillaries (CEI, Pangboure, England). Both electrodes were filled with 3M KCl solution and the electrodes resistances were between 1-5 MΩ). The CB1-mediated GIRK currents were measured in a 24 mM K+ solution (in mM: 72 NaCl, 24 KCl, 1 CaCl2, 1 MgCl2, 5 Hepes, with pH adjusted to 7.5 with KOH). pCLAMP10 software (Axon Instruments) was used for data acquisition and analysis.
Next, the dependence of the THC-induced K+ current (ITHC) on THC concentration (dose-response) was measured. The oocyte was voltage-clamped to-80 mV in a low K+ (2 mM K+) solution, ND96. Basal GIRK current (IK) was developed upon replacement of the ND96 by the 24 mM K+ solution. This current represents the basal activation of GIRK channel by endogenous βγ subunits present in the oocytes. Then, five concentrations of THC were applied sequentially, giving rise to ITHC. This current was terminated upon washout of THC. Employing this basic experimental protocol, a full dose-response curve was constructed. To be able to compare between oocytes, ITHC at any particular THC concentration was normalized to ITHC obtained at a 10 μM, defined as the reference response.
Next, the effect of terpenes on CB1 activation was assessed.
Response amplitudes were normalized to the response obtained with 10 μM THC.

[3] = 30 μM THC with a 1/10 concentration of the terpene
[4] = 8 μM THC with a 1/10 concentration of the terpene

T3 sequence (P21554 whole entry): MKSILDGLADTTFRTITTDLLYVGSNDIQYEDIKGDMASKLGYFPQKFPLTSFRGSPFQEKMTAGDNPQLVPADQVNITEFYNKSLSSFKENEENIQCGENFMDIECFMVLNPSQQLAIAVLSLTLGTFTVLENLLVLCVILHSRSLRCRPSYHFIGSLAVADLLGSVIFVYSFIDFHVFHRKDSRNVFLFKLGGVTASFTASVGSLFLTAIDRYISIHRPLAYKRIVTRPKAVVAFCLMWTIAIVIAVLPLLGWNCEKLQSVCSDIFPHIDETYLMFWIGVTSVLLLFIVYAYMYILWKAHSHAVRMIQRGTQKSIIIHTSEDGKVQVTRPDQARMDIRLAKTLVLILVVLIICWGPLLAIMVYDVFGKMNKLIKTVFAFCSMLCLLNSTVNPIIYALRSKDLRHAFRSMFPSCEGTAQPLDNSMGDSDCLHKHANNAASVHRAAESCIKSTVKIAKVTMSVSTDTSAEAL
T1 sequence (O75762 whole entry): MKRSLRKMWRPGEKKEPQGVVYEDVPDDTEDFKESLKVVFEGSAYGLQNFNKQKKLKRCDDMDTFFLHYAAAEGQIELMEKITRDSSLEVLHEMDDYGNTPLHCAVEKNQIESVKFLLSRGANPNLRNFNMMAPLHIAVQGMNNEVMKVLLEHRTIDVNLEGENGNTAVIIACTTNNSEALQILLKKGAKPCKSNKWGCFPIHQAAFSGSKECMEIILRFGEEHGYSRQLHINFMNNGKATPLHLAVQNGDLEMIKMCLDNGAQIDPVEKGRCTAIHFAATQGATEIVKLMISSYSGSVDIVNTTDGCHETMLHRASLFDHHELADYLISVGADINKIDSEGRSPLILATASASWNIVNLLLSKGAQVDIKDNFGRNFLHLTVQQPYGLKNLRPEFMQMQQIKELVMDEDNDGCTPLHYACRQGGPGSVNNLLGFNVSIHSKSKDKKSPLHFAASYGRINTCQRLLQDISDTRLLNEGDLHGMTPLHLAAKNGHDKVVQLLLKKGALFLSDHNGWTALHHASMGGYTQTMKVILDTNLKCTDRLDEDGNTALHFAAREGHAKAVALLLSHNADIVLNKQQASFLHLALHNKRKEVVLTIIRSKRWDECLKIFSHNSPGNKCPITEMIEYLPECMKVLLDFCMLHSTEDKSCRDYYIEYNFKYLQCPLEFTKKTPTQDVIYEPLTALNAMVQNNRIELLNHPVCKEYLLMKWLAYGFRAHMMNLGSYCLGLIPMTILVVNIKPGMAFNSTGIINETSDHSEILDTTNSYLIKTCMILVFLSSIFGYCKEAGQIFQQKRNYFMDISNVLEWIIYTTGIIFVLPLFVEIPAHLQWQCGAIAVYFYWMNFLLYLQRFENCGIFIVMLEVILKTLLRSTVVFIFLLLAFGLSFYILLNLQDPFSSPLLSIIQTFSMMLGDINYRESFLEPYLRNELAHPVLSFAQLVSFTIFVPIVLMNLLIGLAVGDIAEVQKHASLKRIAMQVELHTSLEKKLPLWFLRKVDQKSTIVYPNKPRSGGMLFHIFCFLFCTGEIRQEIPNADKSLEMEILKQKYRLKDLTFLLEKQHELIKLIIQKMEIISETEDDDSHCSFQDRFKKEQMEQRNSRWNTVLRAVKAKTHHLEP

| SMILES | Fold change of THC potency by terpene, at terpene:THC ratio of 1:10 (CB1 receptor [1]) | Response to 10 μM terpene (CB1 receptor [2]) | further results |
| --- | --- | --- | --- |
| CC(C)=CCCC(C)=CC=O [Citral] | – | – | TRPA1 response amplitude normalized to maximal activation by AITC (hTRPA1; [3]): 0.96 |
| CC1CCC(C(C)C)C(O)C1 (centres unmarked) [Menthol] | – | – | TRPA1 response amplitude normalized to maximal activation by AITC (hTRPA1; [4]): 0.44 |
| CCCCCc1cc(O)c2c(c1)OC(C)(C)[C@@H]1CCC(C)=C[C@@H]21 [THC, tetrahydrocannabinol, reference compound] | – | – | Effect on the GIRK current (GIRK channel): None of these compounds showed an effect on the GIRK current; TRPA1 response amplitude normalized to maximal activation by AITC (hTRPA1; 8 μM THC alone): 0.35; TRPA1 response amplitude normalized to maximal activation by AITC (hTRPA1; 30 μM THC alone): 0.8 |
| CC1(C)C2CCC1(C)C(O)C2 (centres unmarked) [borneol] | 4.469 | – | – |
| CC12CCC(CC1)C(C)(C)O2 [eucalyptol] | – | 0.41 ± 0.04 | TRPA1 response amplitude normalized to maximal activation by AITC (hTRPA1; [4]): 0.48; TRPA1 response amplitude normalized to maximal activation by AITC (hTRPA1; [3]): 0.93 |
| CC(C)=CCC/C(C)=C/CO [geraniol] | 1.576 | 0.31 ± 0.08 | – |
| C=C(C)[C@H]1CC=C(C)CC1 [limonene] | 3.369 | 0.23 ± 0.02 | – |
| C=CC(C)(O)CCC=C(C)C (centres unmarked) [linalool] | 1.553 | – | TRPA1 response amplitude normalized to maximal activation by AITC (hTRPA1; [4]): 0.44; TRPA1 response amplitude normalized to maximal activation by AITC (hTRPA1; [3]): 0.93 |
| C=CC(=C)CCC=C(C)C [myrcene] | – | 0.26 ± 0.07 | – |
| C=CC(C)=CCC=C(C)C [ocimene] | 2.639 | 0.36 ± 0.05 | – |
| C=C1CCC2(C(C)C)CC12 (centres unmarked) [sabinene] | 1.685 | – | – |
| CC1=CCC(=C(C)C)CC1 [terpinolene] | – | 0.45 ± 0.02 | – |
| CC1=CCC2CC1C2(C)C (stereo not drawn) [α-pinene] | – | 0.29 ± 0.03 | – |
| C=C1CCC2CC1C2(C)C (stereo not drawn) [β-pinene] | – | 0.29 ± 0.06 | – |

Source: patent publication US20240366634A1, “METHODS FOR THE TREATMENT OF CB1-, TRPA1- AND TRPV1-DEPENDENT CONDITIONS” (BUZZELET DEVELOPMENT AND TECHNOLOGIES LTD., priority 2021, published 2024)
